The conditions of data set [1]: classification by the US Environmental Protection Agency; cited from earlier work.
Data set [2] relates to soybean cyst nematode (SCN). As to the kind of experiment: SCN greenhouse soil assay on soybean plants. It is filed as in vivo, H. glycines. As to conditions: 0 day treatment, 0.25 kg/ha rate, harvested 28 days after egg inoculation. An excerpt:
Soybeans seeds are planted in 100% sand in two inch square plastic pots.
Chemical treatment is done when the soybeans show the first trifoliate beginning to emerge about 10 to 12 days after planting. At least four hours after chemical application the nematode soybean cyst nematode (SCN) eggs are applied and 28 days after the egg inoculation the test is harvested.
(§1) One milligram of chemistry per four pots is equal to one kilogram per hectare of chemical. A standard test uses four replications. For rates above 2 kg/ha, the desired amount of chemical is weighed into a 30 ml vial (example: 8 kg/ha rate=8 mg chemical in 30 ml vial). The chemical is dissolved in 2 ml of appropriate solvent, generally acetone. For rates below 2 kg/ha, 2 milligrams of chemistry is weighed into the vial and dissolved in 2 ml of the solvent. The appropriate amount of chemical concentrate is then pipetted into a separate 30 ml vial and solvent is added to bring the volume to 2 ml (example 0.5 kg/ha=0.5 ml of concentrate+1.5 ml solvent). Each dissolved concentrate is then brought to a total of 20 milliliters using 0.05% Triton X 100 surfactant solution.
(§2) Pots to be treated are moist but not saturated. To each of four pots, five milliliters of the appropriate chemical solution is pipetted to the media surface making sure to avoid contact with the base of the plant. Immediately following chemical application, using a mist nozzle, the pot surface is wetted sufficiently to saturate the pot watering in the chemistry. The chemical application is done in the morning.
(§3) Nematode eggs, either SCN or RKN, are added to distilled water to create a concentration of […] of water. At least four hours after chemical treatment (0 day testing) or 1 week later (7 day longevity testing) the eggs are applied to the treated pots plus non-treated check plants. A small hole about 1 cm deep is punched into the pot surface. One milliliter of the nematode egg slurry is pipetted into the hole. Immediately afterwards the hole is gently covered. Watering of the test plants is then restricted to only water as needed to prevent wilt for a period of 24 hours. After the 24 hour restricted watering, normal sub-irrigation watering is done for the duration of the test.

A further data set deals with C. elegans. As to the kind of experiment: C. elegans well test (contact assay). It is filed as cell-based. As to conditions: L1 worms, 20° C. The protocol:
C. elegans: Various compounds were tested for nematicidal activity against C. elegans using contact assays in wells. The assays were performed as described below. The test compounds were solubilized in DMSO at 10 mg/ml to create 100× stock solutions. A dilution series was created by diluting the stock solution with DMSO. For each well assay 4 ul of the appropriate dilution is added to a well of a test plate. A 400 ul aliquot of bacterial stock (in M9 buffer with ampicillin) is added to each well of the test plate. Worms are added and the test plate placed on a rotary shaker incubated at 20° C. Worms are examined and scored at 24 hrs, 48 hrs and 72 hours. L1 worms used in the assay are prepared by plating eggs on a plate without a bacterial feeding layer. The eggs hatch and arrest at the L1 stage. This L1 stage population is then used to create a stock for the experiments. A 25 ul aliquot of worms is added to each well in the assay.

The subject of the next data set is root knot nematode (RKN). As to the kind of experiment: RKN greenhouse soil assay on cucumber plants. In kind it is in vivo, M. incognita. As to conditions: 7 day treatment, rated 14 days after egg inoculation.
From the text: Cucumber seeds are planted in a sandy soil mixture in two inch square plastic pots. When the cotyledons are fully opened and just as the first leaf begins to emerge, usually 7 days after planting, chemistry for the 7-day treatment is applied. One week later the chemistry for the 0 day treatment is applied. Separate plants are used for each application. The plants are generally in the 1-2 leaf stage now. At least four hours after the chemistry application the pots are inoculated with root knot nematode (RKN) eggs. Plants are rated for galling 14 days after the egg inoculation.
as §1, §2, §3

The next data set concerns Meloidogyne incognita. Put plainly: M. incognita miniaturized greenhouse assay (cucumber seedling in sand, root galling). Particulars: average of triplicate gall rating, scale 0=0-5%, 1=6-20%, 2=21-50%, 3=51-100% root mass galled, 10 to 12 days after inoculation. In kind it is in vivo. The protocol:
The test compound is dissolved in an acetone solution and added to water. A sprouted cucumber seedling is placed into a vial with dry sand and the water-chemical solution is added immediately. Twenty four hours later Meloidogyne incognita eggs are added to the vials and 10 to 12 days later the roots are evaluated for nematode galling.
Cucumber seeds are sprouted for 3 days in moist paper towels. Acceptable sprouts should be 3 to 4 cm long with several lateral roots just emerging. Stock solutions of chemistry are prepared in a mixture of acetone and Triton X100 (412 mg in 500 mL) to a final concentration of 5 mg/mL. The chemical stock solution is then added to 10 mL deionized water plus 0.015% Triton X100 and mixed thoroughly. This is enough to test each condition in triplicate. Ten mL dry sand is added to each vial. At this time the solubility of the chemistry is visually determined and recorded as either ppt (large precipitates) or cloudy (fine precipitates). Seedlings are planted by tilting the vial and laying the seedling in the correct orientation so that the cotyledons are just above the sand and then tilting back to cover the radicles with sand. 3.3 ml water/chemical mix is added to each vial and the vials placed in racks under fluorescent light banks. The vials are inoculated two days after planting by adding 500 vermiform M. incognita eggs to each vial in 50 uL of deionized or spring water. The vials are then kept under the fluorescent lamps at ambient room temperature and watered as needed with 1 mL deionized water, usually twice during duration of test. Harvest of the cucumber plants is done 10 to 12 days after inoculation by washing sand off the roots. A root gall rating and visual phytotoxicity rating is assigned using the following scales: Gall rating scale (Gall: % root mass galled): 0=0-5%; 1=6-20%; 2=21-50%; and 3=51-100%. The average of the triplicate gall rating is then calculated: green=0.00-0.33 (no galls); yellow=0.67-1.33 (mild galling); orange=1.67-2.33 (moderate galling); red=2.67-3.00 (severe galling). Visual phytotoxicity scale is also assigned (Vis. tox; visual reduction in root mass compared to the control): rs1=mild stunting; rs2=moderate stunting; rs3=severe stunting.

The next data set deals with H. contortus. As to the kind of experiment: H. contortus larval development assay. In kind it is cell-based. As to conditions: at 72 hours; hatching and larval movement. How it is done:
The assay was performed essentially as described in: Hubert J, Kerboeuf D. A new method for culture of larvae used in diagnosis of ruminant gastrointestinal strongylosis: comparison with fecal cultures. Can J Comp Med. 1984 48(1):63-71. H. contortus eggs were obtained from Myers Parasitology (Magnolia, Ky.). The test compounds were solubilized in DMSO to create […] stock solutions. 2 ul of compound at various concentrations followed by 200 ul of molten agar were mixed into the wells. Approximately 50 eggs were placed in the well and incubated for 24 hours. After this time, >50% of the eggs were hatched in DMSO controls. After 24 hr, 100 ul of growth medium (Earle's salt solution, 1% yeast extract, 0.9% saline, and sodium bicarbonate to pH 7) containing compound was added to allow larval feeding. After 48 hr in growth medium (total of 72 hours) the wells were evaluated for hatching and larval movement.

Where [3] appears, read: 1 ppm, letters a-d mark separate tests.

SMILES strings stand for the structures. Some results are limits rather than exact numbers.

The source of these data is patent US9907306B2, “Compositions and methods for controlling nematode pests” (Monsanto Technology LLC, priority 2010, dated 2018).

Turning to `CNC(=O)O/N=C(\SC)C(=O)N(C)C` [Oxamyl, reference compound], the toxicity class result in data set [1] is recorded as “Class I”. The “percent control (cyst reduction) relative to the control blank treatment” value in data set [2] is 75%^.
Turning to `Clc1ccc(-n2nnc(-c3cccs3)n2)cc1` [compound 1], the EC50 in the data set with C. elegans (1 day) is 0.8 ppm; in the data set on C. elegans (2 days), 0.8 ppm; in the data set with C. elegans (3 days), 0.9 ppm; with H. contortus, less than 6.3 ppm. The entries for the “percent control (galling reduction) relative to the control blank treatment” value in the data set on root knot nematode (RKN) (0.1 kg/ha rate) and in the data set on root knot nematode (RKN) (0.25 kg/ha rate) were 89% and 92%, respectively. In addition, the gall ratings in the data set with Meloidogyne incognita (setting [3]) was 0.67; with Meloidogyne incognita (8 ppm), 0. Moreover, the “percent control (cyst reduction) relative to the control blank treatment” value in data set [2] stood at 24%^.
Regarding `c1ccc(-n2nnc(-c3cccs3)n2)cc1` [compound 2], the EC50 in the data set on C. elegans (1 day) was greater than 50 ppm; with C. elegans (2 days), 0.8 ppm; in the data set with C. elegans (3 days) it was 0.8 ppm; in the data set with H. contortus, 6.3-25 ppm. Moreover, the “percent control (galling reduction) relative to the control blank treatment” value in the data set with root knot nematode (RKN) (0.1 kg/ha rate) is given as 47%; in the data set on root knot nematode (RKN) (0.25 kg/ha rate) it was 53%. Also, the gall ratings with Meloidogyne incognita (setting [3]) is given as 0.67; with Meloidogyne incognita (8 ppm), 0.33. In addition, the “percent control (cyst reduction) relative to the control blank treatment” value in data set [2] amounted to 52%^.
Regarding `Cc1cc(Cl)ccc1-n1nnc(-c2ccco2)n1` [compound 3], the EC50 was 0.8/0.8/0.8 ppm with C. elegans (1 day), 0.8/0.8/0.8 ppm in the data set with C. elegans (2 days), 0.8/0.8/0.8 ppm in the data set with C. elegans (3 days) and less than 6.3 ppm in the data set on H. contortus. Besides, the gall ratings with Meloidogyne incognita (setting [3]) came out at 1.33; in the data set on Meloidogyne incognita (8 ppm) it was 0. Further, in data set [2], the “percent control (cyst reduction) relative to the control blank treatment” value was found to be 44%^.
With `Clc1ccc(-n2nnc(N3CCCC3)n2)cc1` [compound 4], the gall ratings was 1.33 with Meloidogyne incognita (setting [3]) and 0.33 in the data set on Meloidogyne incognita (8 ppm).
The like results for `Cn1cccc1-c1nnn(-c2ccccc2)n1` [compound 5] were, in that order, 2.33 and 0.00.
For `c1ccc(-c2nnn(-c3cccs3)n2)cc1` [compound 6] the same measures were 1.33 and 0.00.
For the compound `c1ccc(-n2nnc(-n3cccc3)n2)cc1` [compound 7], the gall ratings came out at 1.67 in the data set with Meloidogyne incognita (setting [3]) and 0.33 in the data set on Meloidogyne incognita (8 ppm).
